The text below walks through data of ChEMBL document CHEMBL1134210, “Synthesis and biological activities of potential metabolites of the non-nucleoside reverse transcriptase inhibitor efavirenz” (Bioorg Med Chem Lett, 2001).

Assay [1] concerns the target Human immunodeficiency virus type 1 reverse transcriptase (Human immunodeficiency virus 1, UniProt Q72547). The experiment in a line: Inhibitory activity against HIV-1 reverse transcriptase.
The test system of another assay is Nucleic Acid. The experiment in a line: Inhibitory activity against RNA. It counts as functional.

For orientation: IC50 means the concentration that inhibits the measured activity by half. In general, IC90 refers to the concentration needed for an effect of 90%. Turning to `O=C1Nc2c(OS(=O)(=O)O)cc(Cl)cc2[C@@](C#CC2CC2)(C(F)(F)F)O1.c1ccncc1`, in assay [1], the IC50 came to 12.5 µM. Besides, in the assay with Nucleic Acid, the IC90 came out at 1.01 µM.

For `O=C1Nc2c(O)cc(Cl)cc2[C@@](C#CC2CC2)(C(F)(F)F)O1`, it took 2.34 µM to reach half-maximal inhibition in assay [1] (IC50). The compound also came in with a concentration for an effect of 90% (IC90) in the assay with Nucleic Acid of 0.063 µM.

The compound `O=C1Nc2c(O[C@@H]3O[C@H](C(=O)O)[C@@H](O)[C@H](O)[C@H]3O)cc(Cl)cc2[C@@](C#CC2CC2)(C(F)(F)F)O1` had an IC50 in assay [1] of 9.49 µM. This compound gave an IC90 with Nucleic Acid of over 0.985 µM.

Compound `O=C1Nc2c(O)cc(Cl)cc2C(C#CC2CC2)(C(F)(F)F)O1` (single isomer, unassigned) displayed an IC50 in assay [1] of over 12.5 µM. Also, the IC90 with Nucleic Acid was over 1.51 µM.

For the compound `O=C1Nc2ccc(Cl)cc2[C@@](C#CC2CC2)(C(F)(F)F)O1`, the IC90 with Nucleic Acid was found to be 0.0017 µM.

In assay [1], `O=C1Nc2ccc(Cl)cc2C(C#CC2(O)CC2)(C(F)(F)F)O1` (stereo not drawn) came in with an IC50 of 1.98 µM. In the assay with Nucleic Acid, this compound yielded an IC90 of 0.033 µM.

Turning to `O=C1Nc2cc(O)c(Cl)cc2C(C#CC2CC2)(C(F)(F)F)O1` (stereo not drawn), the half-maximal inhibitory concentration (IC50) in assay [1] amounted to 2.45 µM. In the assay with Nucleic Acid, this compound came in with an IC90 of 0.422 µM.
